In article PMC8236452, “Pharmacokinetics and safety of rucaparib in patients with advanced solid tumors and hepatic impairment” (Cancer Chemotherapy and Pharmacology, 2021):

Columns and labels:
[1] = Urine pharmacokinetics (Ae0–24, CLR) after a single oral dose of rucaparib 600 mg in patients with advanced solid tumors; type: in vivo, human; conditions: single oral rucaparib 600 mg; for Ae0–24, GM / Ae0–24, Mean (SD) / Ae0–24, Median (min–max): urine
Description: Stable deuterium-labeled analytes were used as internal standards.
PK parameters were estimated from the concentration–time profiles.

[2] = human, in vivo
Description: (§1) In Part 1, patients received a single oral dose of rucaparib 600 mg on day 1; PK samples were collected and safety monitored through day 7.
(§2) Sample collection, processing, and shipping were conducted according to standardized protocols shared across study sites. Plasma samples were collected for PK analysis at the predose assessment and at 1, 2, 3, 4, 8, 12, 24, 48, 72, 96, 120, and 144 h postdose. A predose urine sample was collected less than 12 h prior to study drug administration. Total urine was collected 0–12 h and 12–24 h postdose. Total (bound and unbound) concentrations of rucaparib and its metabolite M324 in plasma and urine samples were determined by Q Squared Solutions BioSciences (Ithaca, NY, USA) using validated liquid chromatography mass spectrometry/mass spectrometry methods. Stable deuterium-labeled analytes were used as internal standards. The assay calibration ranges for plasma samples were 5–10,000 ng/mL for rucaparib and 1–1000 ng/mL for M324 with lower limits of quantification (LLOQ) of 5.00 and 1.00 ng/mL, respectively. For urine samples, the calibration range was 500–50,000 ng/mL for both rucaparib and M324, with a LLOQ of 500 ng/mL for both analytes. The precision was within 9.3% CV, and the accuracy was within ± 6.2%.
(§3) PK parameters were estimated from the concentration–time profiles. Actual elapsed time after dosing was used to estimate plasma PK parameters based on noncompartmental methods using Phoenix® WinNonlin® version 8.1.0 (Certara USA, Inc., Princeton, NJ, USA). […] Exploratory PK parameters for M324 calculated based on plasma and urine concentration-time data were Cmax, AUC0–last, AUC0–inf, t1/2, tmax, Ae0–24, and CLR, as data allowed.
(§4) PK parameters were calculated by noncompartmental analysis, analyzed using descriptive statistics, and presented by hepatic functional status. Analysis of variance (ANOVA) was used to compare PK parameters (e.g., Cmax, AUC0–last, and AUC0–inf) between the normal hepatic function group and the moderate hepatic impairment group per NCI-ODWG criteria. PK values were log-transformed before analysis. Baseline covariates (e.g., creatinine clearance [CLcr], sex, age, BMI, and ECOG PS) were tested for any significant effect (P value < 0.05). Geometric least-squares means were used to calculate the ratios of the PK parameters in the hepatic impairment group to those in the control group, along with 90% confidence intervals (CIs). The Wilcoxon rank-sum test was used to compare tmax values between the two groups, and estimates of the median differences were determined, along with 90% CIs. In addition, the relationships between log-transformed PK parameters (AUC0–last, AUC0–inf, Cmax) for rucaparib and M324 and hepatic function parameters (bilirubin and aspartate aminotransferase [AST]) relevant to the classification of hepatic impairment according to NCI-ODWG were explored by a linear regression approach.

[3] = cited from earlier work
[4] = ref unpublished results; cited from earlier work
[5] = test system: PARP; conditions: cited from earlier work
[6] = test system: PARP; set-up: method as in earlier work; conditions: cited from earlier work
[7] = Plasma pharmacokinetics after a single oral dose of rucaparib 600 mg in patients with advanced solid tumors, by hepatic function group; conditions: for AUC0–last, Geometric LS means / Cmax, Geometric LS means: ANOVA; for AUC0–inf, GM / AUC0–inf, Mean (SD) / AUC0–inf, Median (min–max) / AUC0–last, GM / AUC0–last, Mean (SD) / AUC0–last, Median (min–max) / Cmax, GM / Cmax, Mean (SD) / Cmax, Median (min–max) / tmax, Median (min–max): single oral rucaparib 600 mg
Description: as §1, §2, §3, §4

[8] = Child–Pugh mild hepatic impairment
[9] = Child–Pugh moderate hepatic impairment
[10] = Child–Pugh severe hepatic impairment
[11] = NCI-ODWG moderate hepatic impairment
[12] = NCI-ODWG normal hepatic function
[13] = NCI-ODWG moderate hepatic impairment (n = 8)
[14] = NCI-ODWG normal hepatic function (n = 8)
[15] = linear regression of log-transformed PK parameter on hepatic function parameter (NCI-ODWG)

## O=C(O)c1ccc(-c2[nH]c3cc(F)cc4c3c2CCNC4=O)cc1 [M324]
[1]; [8]
  CLR, GM: 119 mL/min
  CLR, Mean (SD): 121 (26.2) mL/min
  CLR, Median (min–max): 114 (94.7–161) mL/min
  Ae0–24, GM: 13.1 mg
  Ae0–24, Mean (SD): 16.1 (11.9) mg
  Ae0–24, Median (min–max): 14.5 (4.77–40.9) mg
[1]; [9]
  CLR, GM: 68.5 mL/min
  CLR, Mean (SD): 90.5 (55.6) mL/min
  CLR, Median (min–max): 104 (12.7–163) mL/min
  Ae0–24, GM: 4.33 mg
  Ae0–24, Mean (SD): 5.44 (4.06) mg
  Ae0–24, Median (min–max): 4.29 (1.46–12.8) mg
[1]; [10]
  CLR, GM: 24.8 mL/min
  CLR, Mean (SD): 39.3 (43.1) mL/min
  CLR, Median (min–max): 39.3 (8.84–69.8) mL/min
  Ae0–24, GM: 1.37 mg
  Ae0–24, Mean (SD): 1.38 (0.193) mg
  Ae0–24, Median (min–max): 1.38 (1.24–1.51) mg
[1]; [11]
  CLR, GM: 47.7 mL/min
  CLR, Mean (SD): 72.7 (57.6) mL/min
  CLR, Median (min–max): 69.8 (8.84–163) mL/min
  Ae0–24, GM: 3.61 mg
  Ae0–24, Mean (SD): 5.46 (4.96) mg
  Ae0–24, Median (min–max): 2.88 (1.24–12.8) mg
[1]; [12]
  CLR, GM: 118 mL/min
  CLR, Mean (SD): 120 (24.0) mL/min
  CLR, Median (min–max): 113 (96.7–161) mL/min
  Ae0–24, GM: 10.0 mg
  Ae0–24, Mean (SD): 13.7 (12.3) mg
  Ae0–24, Median (min–max): 10.9 (3.47–40.9) mg
[2]
  AUC0–last, Geometric mean ratio Moderate/normal (90% CI): 1.483 (0.766–2.868)
  Cmax, Geometric mean ratio Moderate/normal (90% CI): 1.055 (0.529–2.105)
[3]
  formation of M324, share of total clearance of rucaparib: ~ 1/3
[4]
  plasma protein binding: 91%
[5]
  biological activity, in vitro PARP inhibition data: not biologically active
[6]
  activity in in vitro target binding affinity and cytotoxicity assay: inactive
[7]; [13]
  AUC0–last, Geometric LS means: 5930 h⋅ng/mL
  Cmax, Geometric LS means: 76.7 ng/mL
[7]; [14]
  AUC0–last, Geometric LS means: 4000 h⋅ng/mL
  Cmax, Geometric LS means: 72.7 ng/mL
[7]; [8]
  AUC0–inf, GM: 5590 h⋅ng/mL
  AUC0–inf, Mean (SD): 5800 (1720) h⋅ng/mL
  AUC0–inf, Median (min–max): 5700 (3960–8340) h⋅ng/mL
  AUC0–last, GM: 4740 h⋅ng/mL
  AUC0–last, Mean (SD): 5070 (1910) h⋅ng/mL
  AUC0–last, Median (min–max): 5130 (2330–7890) h⋅ng/mL
  Cmax, GM: 97.9 ng/mL
  Cmax, Mean (SD): 111 (62.9) ng/mL
  Cmax, Median (min–max): 98.7 (42.7–235) ng/mL
  tmax, Median (min–max): 4.00 (3.00–24.0) h
[7]; [9]
  AUC0–inf, GM: 3580 h⋅ng/mL
  AUC0–inf, Mean (SD): 3840 (1590) h⋅ng/mL
  AUC0–inf, Median (min–max): 4190 (2100–5230) h⋅ng/mL
  AUC0–last, GM: 4550 h⋅ng/mL
  AUC0–last, Mean (SD): 5690 (4710) h⋅ng/mL
  AUC0–last, Median (min–max): 3810 (1930–15,600) h⋅ng/mL
  Cmax, GM: 57.4 ng/mL
  Cmax, Mean (SD): 64.1 (33.1) ng/mL
  Cmax, Median (min–max): 50.9 (28.9–118) ng/mL
  tmax, Median (min–max): 23.9 (4.03–72.0) h
[7]; [10]
  AUC0–last, GM: 6840 h⋅ng/mL
  AUC0–last, Mean (SD): 15,900 (20,200) h⋅ng/mL
  AUC0–last, Median (min–max): 15,900 (1550–30,200) h⋅ng/mL
  Cmax, GM: 72.5 ng/mL
  Cmax, Mean (SD): 164 (208) ng/mL
  Cmax, Median (min–max): 164 (16.9–311) ng/mL
  tmax, Median (min–max): 73.5 (2.97–144) h
[7]; [11]
  AUC0–inf, GM: 4960 h⋅ng/mL
  AUC0–inf, Mean (SD): 4990 (720) h⋅ng/mL
  AUC0–inf, Median (min–max): 5230 (4190–5570) h⋅ng/mL
  AUC0–last, GM: 5930 h⋅ng/mL
  AUC0–last, Mean (SD): 8940 (9600) h⋅ng/mL
  AUC0–last, Median (min–max): 4760 (1550–30,200) h⋅ng/mL
  Cmax, GM: 76.7 ng/mL
  Cmax, Mean (SD): 105 (91.8) ng/mL
  Cmax, Median (min–max): 83.7 (16.9–311) ng/mL
  tmax, Median (min–max): 30.0 (2.97–144) h
[7]; [12]
  AUC0–inf, GM: 4750 h⋅ng/mL
  AUC0–inf, Mean (SD): 5220 (2300) h⋅ng/mL
  AUC0–inf, Median (min–max): 4930 (2100–8340) h⋅ng/mL
  AUC0–last, GM: 4000 h⋅ng/mL
  AUC0–last, Mean (SD): 4450 (2130) h⋅ng/mL
  AUC0–last, Median (min–max): 3810 (1930–7890) h⋅ng/mL
  Cmax, GM: 72.7 ng/mL
  Cmax, Mean (SD): 90.1 (67.4) ng/mL
  Cmax, Median (min–max): 74.5 (28.9–235) ng/mL
  tmax, Median (min–max): 10.1 (3.00–24.0) h
[7]; [15]
  Slope estimate (90% CI), AUC0-last vs AST: 0.001 (–0.001 to 0.004)
  Slope estimate (90% CI), AUC0-last vs Bilirubin: –0.004 (–0.018 to 0.011)
  Slope estimate (90% CI), Cmax vs AST: 0 (–0.002 to 0.003)
  Slope estimate (90% CI), Cmax vs Bilirubin: –0.007 (–0.022 to 0.007)
